The subject of the assay is Mycobacterium tuberculosis H37Rv growth inhibition, no glycerol. Briefly: Mycobacterium tuberculosis H37Rv growth inhibition, no glycerol, confirmatory dose response (AID 449764).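 For all read-outs here: growth read after 7 days of incubation.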 The note with it: for IC90: measured here: IC90 growth inhibition.

pIC50: −log10 of the molar value.

Here are results for 53 molecules from PubChem BioAssay AID449764 (Southern Research Specialized Biocontainment Screening …, 2010).

Broadly, the pIC50 is −log10 of the IC50, conventionally taken in molar units. By IC90 is commonly meant the concentration at which the effect reaches the 90% level. The low end stands for an effect from little substance, the high end for a need for much substance. Take `CCN(CC)Cc1nc2c(c(=O)[nH]1)C(CC)(CC)Cc1ccccc1-2`: the pIC50 is 4.90 and the IC90 is 21.1 µM.
In the case of `CCOC(=O)c1nc2sc3c(c2c(=O)[nH]1)CCC(C)C3` (centres undefined), the pIC50 was 4.16 and the IC90 is above 100 µM.
As to `C/C(O)=C\c1nc2ccccc2oc1=O`, the pIC50 was 6.12 and the IC90 is 0.89 µM.
With `O=S1(=O)N(CCN2CC=C(c3c[nH]c4cc(F)ccc34)CC2)c2cccc3c2N1CCC3`, the pIC50 is 4.95 and the IC90 worked out at 12.3 µM.
Taken in the same sequence, the figures for `COc1ccccc1C(CNC(=O)C(C)(C)Oc1ccc(Cl)cc1)N1CCCC1` (centres undefined) were 4.57 and 42 µM.
The like results for `O=C(Oc1ccc(-c2cn3c(n2)SCC3)cc1)c1ccccc1` were, in that order, 4.14 and above 100 µM.
The like results for `O=C(CSc1ncnc2nc[nH]c12)c1ccc(Cl)cc1` were, in that order, 4.72 and 25.4 µM.
As for `Cn1cc(NC(=O)CCl)cn1`, the pIC50 was 5.07 and the IC90 was 16.1 µM.
As to `COCCn1nnnc1C(c1cc2cc(OC)ccc2[nH]c1=O)N1CCC(Cc2ccccc2)CC1` (centres undefined), the pIC50 was 4.05 and the IC90 was above 100 µM.
Regarding `CC1CCc2c(sc3ncnc(NCCCOC(C)C)c23)C1` (centres undefined), the pIC50 is 4.23 and the IC90 turned out to be 74.2 µM.
`COc1ccc2c(c1)CCc1c(C(=O)Nc3c(C)n(C)n(-c4ccccc4)c3=O)noc1-2`: the pIC50 is 4.05 and the IC90 was above 100 µM.
For `CCN(CC)S(=O)(=O)c1ccc2oc(SCC(=O)Nc3cc(C)on3)nc2c1`, the pIC50 was 4.97 and the IC90 came to 16.6 µM.
Take `Cc1ccc(N2CCN(C(=O)c3cn(CC4CCCCC4)nn3)C(C)C2)cc1` (centres undefined): the pIC50 was 4.40 and the IC90 was 50.3 µM.
Taken in the same sequence, the figures for `COc1ccc(C2Oc3ccccc3C3=C2C(c2cccs2)n2ncnc2N3)cc1` (centres undefined) were 4.10 and above 100 µM.
For `CN1CCN(CC(=O)N2CCn3c4c(c5cc(C6CCCCC6)ccc53)CCCC42)CC1` (centres undefined), the pIC50 was 4.74 and the IC90 turned out to be 21.6 µM.
Taken in the same sequence, the figures for `COc1cc(OC)cc(-c2cc3nc(C)c(CCC(=O)NC(C)CCc4ccco4)c(C)n3n2)c1` (centres undefined) were 4.27 and 90.5 µM.
On to `NC(=O)c1cccc(-c2cc(Nc3ccc(OC(F)(F)F)cc3)ncn2)c1`, for which the pIC50 is 4.61 and the IC90 was above 25 µM.
As for `CCCCC(=O)/C=C/n1c(=S)oc2ccccc21`, the IC90 is above 100 µM.
Consider `Fc1ccc(C[n+]2c(-c3ccccc3)cc(-c3ccccc3)cc2-c2ccccc2)cc1`, for which the pIC50 was 4.48 and the IC90 was found to be 43.9 µM.
`COc1ccc(NC(=O)CN(C)CC(=O)Nc2sc3c(c2C(N)=O)CCC3)cc1`: the negative logarithm of the IC50 (pIC50) is 4.08 and the IC90 was above 100 µM.
Take `Cc1ccc(-c2ccc(C3C(C#N)=C(N)Oc4n[nH]c(C)c43)o2)cc1` (centres undefined): the concentration for an effect of 90% (IC90) is above 100 µM.
Turning to `CCOC(=O)c1cc(C)nc(Sc2ccc(C)cc2)c1C#N`, the pIC50 was 5.27 and the IC90 was 7.74 µM.
For the molecule `COC(=O)c1c(NC(=O)C(=O)N2CCCC2)sc2c1CC(C)(C)OC2`, the pIC50 was 4.18 and the IC90 was above 100 µM.
Turning to `CCOC(=O)C(C)Oc1ccc(NC(=O)C(Cl)(Cl)Cl)cc1` (centres undefined), the pIC50 is 5.40 and the IC90 was found to be 5.86 µM.
With `CCOC(=O)c1ccc(NC(=S)NCCc2ccc(F)cc2)cc1`, the pIC50 was 4.12 and the IC90 is above 100 µM.
Turning to `C=CCN(CC(=O)c1sc(C(=O)OCC)nc1C)c1cccc(Br)c1`, the pIC50 is 4.68 and the IC90 was found to be 32.6 µM.
For the molecule `O=[N+]([O-])c1ccc(S(=O)(=O)c2ccccc2)nc1`, the pIC50 is 5.75 and the IC90 is 2.98 µM.
Taken in the same sequence, the figures for `O=[N+]([O-])c1ccc(C2CC(c3ccccc3)=Nc3ccccc3S2)cc1` (centres undefined) were 5.20 and 7.31 µM.
Regarding `Cc1ccc(/C(N)=N/OC(=O)N2c3ccccc3Sc3ccccc32)cc1`, the pIC50 was 4.03 and the IC90 is above 100 µM.
On to `Cc1ccccc1-n1sc2cc(F)ccc2c1=O`, for which the pIC50 was 4.66 and the IC90 was 24.6 µM.
Take `Cc1cc(-c2c(C)[nH]n(-c3ccccc3)c2=O)n[nH]1`: the pIC50 is 4.40 and the IC90 is above 100 µM.
Taken in the same sequence, the figures for `COc1cccc(COC(=O)c2ccc3c(=O)n4c(nc3c2)CCC4)c1OC` were 4.55 and 59 µM.
Turning to `CCCCN(C)CCNC(=O)c1ccc(Cn2c(=S)[nH]c3ccc(Br)cc3c2=O)cc1`, the pIC50 was 4.72 and the IC90 turned out to be 27.9 µM.
The like results for `c1ccc(-c2nnc(-c3ccccn3)nn2)nc1` were, in that order, 5.22 and 6.86 µM.
In the case of `C=C(C)C1Cc2c(C)nn(-c3nc(C)cc(C)n3)c2C1` (centres undefined), the pIC50 was 5.06 and the IC90 amounted to 22.1 µM.
Consider `OC(CN1CCN(c2ccccn2)CC1)Cn1c2ccccc2c2ccccc21` (centres undefined), for which the pIC50 is 4.38 and the IC90 was determined as 55.1 µM.
In the case of `COc1cc(/C=C(\C#N)c2nc3c(s2)CC(C)CC3)ccc1O` (centres undefined), the pIC50 is 4.34 and the IC90 is 51.4 µM.
Turning to `O=C(Nc1ccc([N+](=O)[O-])cc1)Nc1ccc(OC(F)F)c(Cl)c1`, the pIC50 was 5.60 and the IC90 came out at 3.63 µM.
Take `CC(C)=N/N=C1/NC(=O)C(Cc2ccccc2)S1` (centres undefined): the pIC50 is 4.12 and the IC90 worked out at 97.2 µM.
Take `Cc1ccnc(NC(=O)CCc2c[nH]c3ccccc23)c1`: the pIC50 was 4.67 and the IC90 stood at 31.9 µM.
In the case of `O=C(N/N=C/c1cccc2cccnc12)[C@H]1C[C@@H]1c1ccccc1`, the pIC50 is 4.42 and the IC90 was found to be 56 µM.
As for `COC(=O)c1c(NC(=O)CC2SC(N)=NC2=O)sc2c1CCC(C(C)(C)C)C2` (centres undefined), the pIC50 is 4.40 and the IC90 was 64.4 µM.
As for `O=S(=O)(c1ccc(Cl)cc1)c1snnc1-c1ccccc1`, the pIC50 is 4.72 and the IC90 was determined as 29.9 µM.
Turning to `CN1C(=S)SC(N(O)C(=O)Nc2ccc(Cl)c(Cl)c2)C1(C)C` (centres undefined), the pIC50 is 4.63 and the IC90 worked out at 26.6 µM.
Regarding `CCOc1ccc(NC(=O)c2sc3nc(C)nc(N4CCOCC4)c3c2C)cc1`, the pIC50 is 4.52 and the IC90 was determined as 57 µM.
The like results for `CC1(c2cc([N+](=O)[O-])cc([N+](=O)[O-])c2)CC(C)(C)N(C(=O)c2ccccc2)c2ccccc21` (centres undefined) were, in that order, 4.68 and 28.9 µM.
Taken in the same sequence, the figures for `C/C(=N\NC(=O)c1nnn(-c2nonc2N)c1CN(C)c1ccccc1)c1ccccn1` were 4.92 and 13.6 µM.
With `Cc1cc(Nc2cc(Cl)nc(Sc3ccc(NC(=O)C4CC4)cc3)n2)n[nH]1`, the pIC50 is 4.36 and the IC90 amounted to 59.2 µM.
Taken in the same sequence, the figures for `COc1cc(OC)nc(-n2ncc(Br)c(Br)c2=O)n1` were 4.65 and 25.1 µM.
For `Cc1nc(N2CCC(C)CC2)c2oc3ccccc3c2n1`, the pIC50 is 4.65 and the IC90 came to 30.3 µM.
Take `C=CCNc1oc(-c2ccc(-c3ccccc3)cc2)nc1C#N`: the pIC50 is 4.79 and the IC90 was found to be 19.6 µM.
Turning to `CCCc1cc(=O)n2[nH]c(C)c(-c3ccc(Cl)cc3)c2n1`, the pIC50 was 4.94 and the IC90 turned out to be 13.2 µM.
Regarding `CCOC(=O)c1ccc(NC(=O)CCc2nc(-c3ccc(Cl)cc3)no2)cc1`, the pIC50 was 4.32 and the IC90 is above 100 µM.
